Laboratory results: publication PMC6104039 (Nature Communications, 2018)
Values joined by “and” are separate entries in the source; they are usually repeats but may differ in a detail not shown here. Equal values may be shown once.

Test system: liver
Test: Lipidomic profiling of liver
Assay type: in vivo, mice
Conditions: for Ceramide 18:1/16:0 content of liver / Ceramide 18:1/18:0 content of liver / Ceramide 18:1/20:0 content of liver / Ceramide 18:1/22:0 content of liver / Ceramide 18:1/22:1 content of liver / Ceramide 18:1/24:0 content of liver / Ceramide 18:1/24:1 content of liver / SM 34:1 content of liver / SM 36:1 content of liver / SM 38:1 content of liver / SM 40:1 content of liver / SM 40:2 content of liver / SM 42:1 content of liver / SM 42:2 content of liver / SM 42:3 content of liver: individual mice; for Ceramide 18:1/16:0 content of liver / Ceramide 18:1/18:0 content of liver / Ceramide 18:1/20:0 content of liver / Ceramide 18:1/22:0 content of liver / Ceramide 18:1/22:1 content of liver / Ceramide 18:1/24:0 content of liver / Ceramide 18:1/24:1 content of liver: raw data Fig 3j; for SM 34:1 content of liver / SM 36:1 content of liver / SM 38:1 content of liver / SM 40:1 content of liver / SM 40:2 content of liver / SM 42:1 content of liver / SM 42:2 content of liver / SM 42:3 content of liver: raw data Fig 3k
Procedure: Male C57BL6/J mice were obtained from the Animal Resources Centre in Perth (WA, Australia). Mice were housed at 22 ± 1 °C with a controlled 12:12 h light-dark cycle and had ad libitum access to water and either chow (8% calories from fat) or HFD (45% calories from fat)[66] for 4–6 weeks. […] Treatment was commenced at the same time as mice were randomised to dietary groups. The experiments were approved by the UNSW animal care and ethics committee (ACEC 15/48B), and followed guidelines issued by the National Health and Medical Research Council of Australia.
Lipids were extracted from frozen tissue samples or cells using a two-phase procedure with methyl-tert-butyl ether (MTBE)/methanol/water (10:3:2.5, v/v/v)[67]. Frozen tissue samples (~20 mg) were homogenized in 0.2 mL methanol containing 0.01% butylated hydroxytoluene (BHT), using a Precellys 24 homogenizer and Cryolys cooling unit (Bertin Technologies) with CK14 (1.4-mm ceramic) beads. The homogenates were spiked with an internal standard mixture comprising 5 nmole 19:0/19:0 phosphatidylcholine and 2 nmole each of 17:0/17:0 phosphatidylethanolamine, 17:0/17:0 phosphatidylserine, 17:0/17:0 d5-diacylglycerol, 17:0/17:0 phosphatidylglycerol, 14:0/14:0/14:0/14:0 cardiolipin, 18:1/12:0 SM, 18:1/17:0 ceramide, 18:1/12:0 glucosylceramide, 18:1/12:0 lactosylceramide, 18:1/12:0 sulfatide (all from Avanti Polar Lipids, USA), and 17:0/17:0/17:0 TAG (Cayman Chemical, USA), then transferred to 10 mL screw cap glass tubes. The homogenization tubes containing beads were then washed with another 0.3 mL methanol, and this wash was combined with the first methanol extract, after which 1.7 mL MTBE was added and the samples were sonicated in an ice-cold sonicating water bath (Thermoline Scientific, Australia) for 30 min. Phase separation was induced by addition of 417 µL of mass spectrometry-grade water followed by vortexing and centrifugation at 1000 × g for 10 min. The upper organic phase was collected into 5 mL glass tubes. The lower phase was re-extracted by adding 1 mL MTBE, 300 μL methanol, and 250 μL water. The organic phases were combined in the 5 mL glass tubes and dried under vacuum in a Savant SC210 SpeedVac (Thermo Scientific), then reconstituted in 500 μL methanol and stored at −20 °C until analysis.
Lipidomic profiling was performed on a QExactive Plus mass spectrometer with heated electrospray ionization (HESI) probe and a Dionex UltiMate 2000 LC pump (Thermo Fisher Scientific). Extracts were resolved on a 2.1 × 100 mm Waters Acquity C18 UPLC column (1.7 µm […]), using a binary gradient in which mobile phase A consisted of acetonitrile:water (60:40), 10 mM ammonium formate, 0.1% formic acid; and mobile phase B was isopropanol:acetonitrile (90:10), 10 mM ammonium formate, 0.1% formic acid[68]. The flow rate was 260 µL/min and column oven 55 °C. Data was acquired in full scan/data-dependent MS^2 mode (full scan resolution 70,000 FWHM, scan range 400–1200 m/z). The ten most abundant ions in each cycle were subjected to MS^2 using an isolation window of 1.4 m/z, collision energy 30 eV, resolution 17,500, maximum integration time 110 ms and dynamic exclusion window 10 s. An exclusion list of background ions was used based on a solvent blank. LipidSearch v4.1.30 software (ThermoFisher Scientific) was used for chromatogram alignment, peak identification and integration. Each lipid peak was manually verified for column elution time and characteristic fragment ions. Data were then exported to an Excel spreadsheet for normalisation of each lipid to its class-specific internal standard, and lipid concentrations were calculated relative to the internal standard.
Data were log transformed, then subjected to two-tailed t-tests adjusted for multiple comparisons using GraphPad PRISM (Benjamini, Krieger and Yekutieli correction, Q = 1%).

C[C@@](N)(CO)CCc1ccc(OCc2ccc(Cl)c(Cl)c2)cc1 [P053, (S)-2-amino-4-(4-(3,4-dichlorobenzyloxy)phenyl)-2-methylbutan-1-ol]
Ceramide 18:1/16:0 content of liver (Chow + P053): 0.263 and 0.826 and 0.657 and 1.600 and 0.958 and 0.311 and 0.952 and 1.950 and 1.430 and 1.980
Ceramide 18:1/18:0 content of liver (Chow + P053): 0.468 and 0.536 and 0.500 and 0.564 and 0.490 and 0.488 and 0.800 and 0.676 and 0.526 and 0.572
Ceramide 18:1/20:0 content of liver (Chow + P053): 0.373 and 0.356 and 0.495 and 0.460 and 0.417 and 0.442 and 0.880 and 0.398 and 0.505 and 0.396
Ceramide 18:1/22:0 content of liver (Chow + P053): 3.920 and 1.760 and 3.420 and 5.450 and 4.500 and 5.040 and 3.220 and 5.390 and 4.280 and 5.730
Ceramide 18:1/22:1 content of liver (Chow + P053): 0.723 and 0.782 and 0.523 and 0.904 and 0.601 and 0.629 and 0.682 and 0.527 and 0.912 and 0.679
Ceramide 18:1/24:0 content of liver (Chow + P053): 3.590 and 2.080 and 4.670 and 4.260 and 5.640 and 4.820 and 3.660 and 3.820 and 3.320 and 4.860
Ceramide 18:1/24:1 content of liver (Chow + P053): 6.030 and 5.880 and 4.990 and 7.190 and 10.500 and 7.070 (2×) and 5.770 and 7.700 and 9.200
SM 34:1 content of liver (Chow + P053): 166.01 and 387.90 and 294.94 and 188.63 and 560.02 and 385.72 and 339.20 and 244.42 and 416.06 and 213.21
SM 36:1 content of liver (Chow + P053): 17.50 and 23.09 and 28.72 and 28.48 and 31.35 and 32.32 and 36.07 and 17.60 and 29.53 and 28.44
SM 38:1 content of liver (Chow + P053): 20.23 and 36.64 and 18.78 and 30.07 and 30.24 and 24.30 and 33.98 and 28.61 and 27.66 and 25.39
SM 40:1 content of liver (Chow + P053): 190.28 and 236.56 and 278.04 and 382.12 and 238.06 and 386.25 and 326.88 and 330.28 and 377.35 and 269.17
SM 40:2 content of liver (Chow + P053): 31.01 and 36.97 and 24.71 and 36.72 and 38.54 and 35.80 and 48.00 and 37.75 and 38.85 and 32.99
SM 42:1 content of liver (Chow + P053): 17.79 and 25.33 and 19.04 and 17.96 and 14.02 and 33.47 and 24.89 and 25.97 and 20.36 and 14.52
SM 42:2 content of liver (Chow + P053): 265.43 and 723.53 and 60.59 and 173.83 and 445.88 and 448.77 and 411.18 and 225.87 and 409.74 and 354.33
SM 42:3 content of liver (Chow + P053): 12.99 and 95.71 and 34.45 and 42.03 and 46.27 and 40.91 and 37.02 and 32.31 and 26.34 and 23.58
Ceramide 18:1/16:0 content of liver (HFD + P053): 1.320 and 0.972 and 0.437 and 1.310 and 0.312 and 0.006 and 2.340 and 2.140 and 1.290 and 1.500
Ceramide 18:1/18:0 content of liver (HFD + P053): 0.435 and 0.273 and 0.474 and 0.459 and 0.643 and 0.366 and 0.820 and 0.267 and 0.974 and 0.526
Ceramide 18:1/20:0 content of liver (HFD + P053): 0.582 and 0.659 and 1.010 and 1.000 and 0.971 and 0.637 and 0.716 and 0.382 and 1.670 and 1.340
Ceramide 18:1/22:0 content of liver (HFD + P053): 5.900 and 4.030 and 8.630 and 5.080 and 3.630 and 4.930 and 8.270 and 6.990 and 8.250 and 9.280
Ceramide 18:1/22:1 content of liver (HFD + P053): 0.333 and 0.644 and 0.674 and 0.925 and 0.703 and 0.380 and 0.572 and 0.319 and 0.786 and 0.444
Ceramide 18:1/24:0 content of liver (HFD + P053): 5.470 and 0.260 and 4.890 and 2.480 and 1.780 and 2.580 and 4.330 and 4.610 and 7.520 and 5.820
Ceramide 18:1/24:1 content of liver (HFD + P053): 6.580 and 2.880 and 4.960 and 4.030 and 5.720 and 2.860 and 6.330 and 6.390 and 11.600 and 5.550
SM 34:1 content of liver (HFD + P053): 482.51 and 71.17 and 450.03 and 341.58 and 602.82 and 140.43 and 342.86 and 326.17 and 1409.61 and 780.28
SM 36:1 content of liver (HFD + P053): 53.21 and 102.16 and 78.05 and 79.54 and 65.66 and 116.67 and 78.22 and 28.49 and 259.61 and 108.18
SM 38:1 content of liver (HFD + P053): 71.47 and 53.18 and 46.58 and 23.22 and 42.32 and 78.12 and 59.56 and 48.00 and 174.38 and 50.63
SM 40:1 content of liver (HFD + P053): 580.97 and 447.50 and 671.33 and 376.94 and 209.01 and 396.09 and 367.60 and 345.17 and 872.91 and 711.11
SM 40:2 content of liver (HFD + P053): 46.18 and 47.77 and 24.90 and 19.09 and 21.42 and 31.04 and 27.87 and 23.30 and 72.99 and 30.73
SM 42:1 content of liver (HFD + P053): 18.56 and 11.22 and 9.61 and 4.95 and 13.26 and 9.80 and 20.61 and 8.52 and 19.00 and 16.17
SM 42:2 content of liver (HFD + P053): 531.45 and 245.25 and 263.63 and 192.83 and 186.28 and 157.29 and 222.03 and 342.17 and 572.48 and 255.77
SM 42:3 content of liver (HFD + P053): 38.83 and 26.76 and 24.26 and 23.94 and 22.31 and 29.44 and 41.75 and 49.23 and 92.66 and 37.38
265 lipids measured in liver (chow or HFD): none was significantly affected
